For one experiment, the target named is PHD2 (EGLN1) (Homo sapiens (Human), UniProt Q9GZT9). Description: HIF-PH assay (14CO2 capture), PHD2 enzyme inhibition. In kind it is biochemical. The settings on record: Table 1; individual measurement; read-out: IC50 (μM) PHD2. An excerpt: (§1) Ketoglutaric acid α-[1-^14C]-sodium salt, alpha-ketoglutaric acid sodium salt, and HPLC purified peptide may be obtained from commercial sources, e.g., Perkin-Elmer (Wellesley Mass.), Sigma-Aldrich, and SynPep Corp. (Dublin Calif.), respectively. Peptides for use in the assay may be fragments of HIFα as described above or as disclosed in International Publication WO 2005/118836, incorporated by reference herein. HIF-pH, e.g., PHD1 (EGLN2) or PHD2 (EGLN1), can be expressed in, e.g., insect Hi5 cells, and partially purified, e.g., through a SP ion exchange chromatography column. Enzyme activity is determined by capturing ^14CO2 using an assay described by Kivirikko and Myllyla (1982, Methods Enzymol. 82:245-304). Assay reactions contain 50 mM HEPES (pH 7.4), 100 μM α-ketoglutaric acid sodium salt, 0.30 mCi/mL ketoglutaric acid α-[1-^14C]-sodium salt, 40 μM FeSO4, 1 mM ascorbate, 1541.8 units/mL Catalase, with or without 50 μM peptide substrate and various concentrations of compound of the invention. Reactions are initiated by addition of HIF-PH enzyme.
(§2) The peptide-dependent percent turnover is calculated by subtracting percent turnover in the absence of peptide from percent turnover in the presence of substrate peptide. Percent inhibition and IC50 are calculated using peptide-dependent percent turnover at given inhibitor concentrations. Calculation of IC50 values for each inhibitor is conducted using GraFit software (Erithacus Software Ltd., Surrey UK).
(§3) The PHD2/PHD1 is the ratio of the IC50 of the compound for each enzyme.

For the next experiment, the target named is PHD1 (EGLN2) (Homo sapiens (Human), UniProt Q96KS0). The experiment can be described thus: HIF-PH assay (14CO2 capture), PHD1 enzyme inhibition. In kind it is biochemical. The note with it: for IC50: individual measurement, read-out: IC50 (μM) PHD1.
Description: as §1, §2, §3

[1] abbreviates: Table 1, ratio of the IC50 of the compound for each enzyme.
Where [2] appears, read: Table 2 comparative data, IC50 PHD2/IC50 PHD1.

SMILES strings stand for the structures.

Sequence of PHD1 (EGLN2) (Q96KS0 whole entry): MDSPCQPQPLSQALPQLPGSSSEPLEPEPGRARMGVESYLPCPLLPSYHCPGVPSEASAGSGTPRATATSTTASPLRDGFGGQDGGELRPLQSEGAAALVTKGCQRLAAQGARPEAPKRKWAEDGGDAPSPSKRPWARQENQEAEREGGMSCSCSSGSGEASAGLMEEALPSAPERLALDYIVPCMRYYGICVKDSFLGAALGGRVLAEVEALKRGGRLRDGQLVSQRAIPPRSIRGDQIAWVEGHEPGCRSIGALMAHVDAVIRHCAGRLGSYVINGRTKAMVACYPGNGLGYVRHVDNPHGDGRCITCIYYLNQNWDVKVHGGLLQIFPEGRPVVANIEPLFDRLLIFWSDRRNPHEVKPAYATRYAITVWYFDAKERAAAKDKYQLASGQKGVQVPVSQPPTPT
Sequence of PHD2 (EGLN1) (Q9GZT9 whole entry, the tested form may be a part): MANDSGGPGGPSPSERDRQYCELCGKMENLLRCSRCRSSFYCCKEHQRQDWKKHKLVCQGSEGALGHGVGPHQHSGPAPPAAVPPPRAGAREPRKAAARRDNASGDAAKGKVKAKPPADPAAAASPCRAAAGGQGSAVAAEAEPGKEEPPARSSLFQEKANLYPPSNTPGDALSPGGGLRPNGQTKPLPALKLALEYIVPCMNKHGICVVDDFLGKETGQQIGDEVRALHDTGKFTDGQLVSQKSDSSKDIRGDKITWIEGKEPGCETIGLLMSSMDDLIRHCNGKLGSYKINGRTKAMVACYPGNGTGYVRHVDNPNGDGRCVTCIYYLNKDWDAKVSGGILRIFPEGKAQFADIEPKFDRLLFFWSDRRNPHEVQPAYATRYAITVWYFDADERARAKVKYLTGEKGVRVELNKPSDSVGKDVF

For `CC(C)(CNC(=O)c1nc(C#N)c2cc(Oc3cccc(F)c3)ccc2c1O)C(=O)O` [Compound 42, 3-(1-Cyano-7-(3-fluorophenoxy)-4-hydroxyisoquinoline-3-carboxamido)-2,2-dimethylpropanoic acid], the half-inhibitory concentration (IC50) at PHD2 (EGLN1) amounted to 3.95 µM; on PHD1 (EGLN2) (Table 1) it was 0.36 µM. In addition, the PHD2/PHD1 on PHD1 (EGLN2) (setting [1]) is given as 11.

Take `O=C(O)CCNC(=O)c1ncc2cc(NC(=O)NCc3ccccc3)ccc2c1O` [Compound 133, 3-{[7-(3-Benzyl-ureido)-4-hydroxy-isoquinoline-3-carbonyl]-amino}-propionic acid]: the IC50 is 6.06 µM at PHD2 (EGLN1) and 0.85 µM at PHD1 (EGLN2) (Table 1). Moreover, the PHD2/PHD1 at PHD1 (EGLN2) (setting [1]) was 7.

In the case of `O=C(O)CCCCNC(=O)c1ncc2cc(-c3ccc(F)cc3)ccc2c1O` [Compound 149, 5-{[7-(4-Fluoro-phenyl)-4-hydroxy-isoquinoline-3-carbonyl]-amino}-pentanoic acid], the IC50 was found to be 87 µM on PHD2 (EGLN1) and 18.5 µM on PHD1 (EGLN2) (Table 1). On PHD1 (EGLN2) (setting [1]), the PHD2/PHD1 was found to be 5.

On to `O=C(O)CNC(=O)c1ncc2cc(Oc3cccnc3)ccc2c1O` [U.S. Pat. No. 7,323,475; Example D-67, 2-{[4-Hydroxy-7-(pyridin-3-yloxy)-isoquinoline-3-carbonyl]-amino}-acetic acid, reference compound], for which the PHD2/PHD1 on PHD1 (EGLN2) (setting [2]) worked out at 3.

Consider `N#Cc1nc(C(=O)NCC2(C(=O)O)CCC2)c(O)c2ccc(Oc3c(F)cccc3F)cc12` [Compound 26, 1-({[1-Cyano-7-(2,6-difluoro-phenoxy)-4-hydroxy-isoquinoline-3-carbonyl]-amino}-methyl)-cyclobutanecarboxylic acid], for which the results for the IC50 on PHD2 (EGLN1) and at PHD1 (EGLN2) (Table 1) were 5.43 µM and 0.7 µM, respectively. Moreover, at PHD1 (EGLN2) (setting [1]), the PHD2/PHD1 worked out at 8.

Regarding `O=C(O)CCNC(=O)c1ncc2cc(Oc3ccccc3)ccc2c1O` [Compound 1, 3-[(4-Hydroxy-7-phenoxy-isoquinoline-3-carbonyl)-amino]propionic acid], the IC50 amounted to 10.3 µM on PHD2 (EGLN1) and 0.92 µM on PHD1 (EGLN2) (Table 1). Besides, the PHD2/PHD1 at PHD1 (EGLN2) (setting [1]) and on PHD1 (EGLN2) (setting [2]) was 11 in each case.

Take `CC(C)(CNC(=O)c1nc(C#N)c2cc(Oc3ccc(Cl)cc3)ccc2c1O)C(=O)O` [Compound 40, 3-{[7-(4-Chloro-phenoxy)-1-cyano-4-hydroxy-isoquinoline-3-carbonyl]-amino}-2,2-dimethyl-propionic acid]: the concentration for half-maximal inhibition (IC50) amounted to 4.01 µM on PHD2 (EGLN1) and 0.3 µM on PHD1 (EGLN2) (Table 1). Moreover, the PHD2/PHD1 at PHD1 (EGLN2) (setting [1]) is 13.

On to `N#Cc1nc(C(=O)NCC(C(=O)O)C2CC2)c(O)c2ccc(Oc3ccccc3)cc12` (centres unmarked) [Compound 166, 3-[(1-Cyano-4-hydroxy-7-phenoxy-isoquinoline-3-carbonyl)-amino]-2-cyclopropyl-propionic acid], for which the half-inhibitory concentration (IC50) is 12.2 µM on PHD2 (EGLN1) and 0.42 µM at PHD1 (EGLN2) (Table 1). Further, the PHD2/PHD1 on PHD1 (EGLN2) (setting [1]) stood at 29.

Take `N#Cc1nc(C(=O)NCCC(=O)O)c(O)c2ccc(Oc3ccc(F)cc3Cl)cc12` [Compound 97, 3-{[7-(2-Chloro-4-fluoro-phenoxy)-1-cyano-4-hydroxy-isoquinoline-3-carbonyl]-amino}-propionic acid]: the IC50 on PHD2 (EGLN1) is 7.43 µM; at PHD1 (EGLN2) (Table 1), 1.3 µM. Moreover, the PHD2/PHD1 on PHD1 (EGLN2) (setting [1]) turned out to be 6.

As for `N#Cc1nc(C(=O)NCC[C@@H](N)C(=O)O)c(O)c2ccc(Oc3ccccc3)cc12` [Compound 50, (R)-2-Amino-4-(1-cyano-4-hydroxy-7-phenoxyisoquinoline-3-carboxamido)butanoic acid], the concentration for half-maximal inhibition (IC50) at PHD2 (EGLN1) was 45.4 µM; on PHD1 (EGLN2) (Table 1) it was 5.19 µM. In addition, on PHD1 (EGLN2) (setting [1]), the PHD2/PHD1 is 9.

Turning to `CC(C)(CNC(=O)c1nc(C#N)c2cc(Oc3ccccc3)ccc2c1O)CC(=O)O` [Compound 89, 4-[(1-Cyano-4-hydroxy-7-phenoxy-isoquinoline-3-carbonyl)-amino]-3,3-dimethyl-butyric acid], the IC50 on PHD2 (EGLN1) turned out to be 13.6 µM; at PHD1 (EGLN2) (Table 1), 2.86 µM. The PHD2/PHD1 on PHD1 (EGLN2) (setting [1]) is 5.

As to `CC(C)(CNC(=O)c1nc(-c2ccccc2)c2cc(Oc3ccccc3)ccc2c1O)C(=O)O` [Compound 143, 3-[(4-Hydroxy-7-phenoxy-1-phenyl-isoquinoline-3-carbonyl)-amino]-2,2-dimethyl-propionic acid], the IC50 at PHD2 (EGLN1) worked out at 88.4 µM; at PHD1 (EGLN2) (Table 1), 11.1 µM. Further, the PHD2/PHD1 on PHD1 (EGLN2) (setting [1]) was determined as 8.

`N#Cc1nc(C(=O)NCCC(=O)O)c(O)c2ccc(Oc3ccccc3)cc12` [Compound 10, 3-[(1-Cyano-4-hydroxy-7-phenoxy-isoquinoline-3-carbonyl)-amino]-propionic acid]: the IC50 on PHD2 (EGLN1) came out at 1.33 µM; at PHD1 (EGLN2) (Table 1), 0.24 µM. Besides, the PHD2/PHD1 at PHD1 (EGLN2) (setting [1]) and on PHD1 (EGLN2) (setting [2]) was 5 in each case.

On to `CC(C)(CNC(=O)c1nc(C#N)c2cc(NC(=O)c3ccc(F)cc3)ccc2c1O)C(=O)O` [Compound 139, 3-{[1-cyano-7-(4-Fluoro-benzoylamino)-4-hydroxy-isoquinoline-3-carbonyl]-amino}-2,2-dimethyl-propionic acid], for which the half-maximal inhibitory concentration (IC50) on PHD2 (EGLN1) amounted to 200 µM; on PHD1 (EGLN2) (Table 1), 5.65 µM. Further, the PHD2/PHD1 at PHD1 (EGLN2) (setting [1]) is given as 35.

On to `N#Cc1nc(C(=O)NCCC(=O)C(=O)O)c(O)c2ccc(Oc3ccccc3)cc12` [Compound 56, 4-(1-Cyano-4-hydroxy-7-phenoxyisoquinoline-3-carboxamido)-2-oxobutanoic acid], for which the figures for the IC50 at PHD2 (EGLN1) and on PHD1 (EGLN2) (Table 1) were 1.8 µM and 0.26 µM, respectively. Moreover, on PHD1 (EGLN2) (setting [1]), the PHD2/PHD1 was 7.

Turning to `N#Cc1nc(C(=O)NCC2(C(=O)O)CCCC2)c(O)c2ccc(Oc3ccccc3)cc12` [Compound 19, 1-{[(1-Cyano-4-hydroxy-7-phenoxy-isoquinoline-3-carbonyl)-amino]-methyl}-cyclopentanecarboxylic acid], the results for the half-inhibitory concentration (IC50) on PHD2 (EGLN1) and at PHD1 (EGLN2) (Table 1) were 22.8 µM and 1.73 µM, respectively. Besides, the PHD2/PHD1 on PHD1 (EGLN2) (setting [1]) is given as 13.

For `N#Cc1nc(C(=O)N[C@H](CC(=O)O)Cc2ccccc2)c(O)c2ccc(Oc3ccccc3)cc12` [Compound 67, (S)-3-[(1-Cyano-4-hydroxy-7-phenoxy-isoquinoline-3-carbonyl)-amino]-4-phenyl-butyric acid], the half-inhibitory concentration (IC50) on PHD1 (EGLN2) (Table 1) is 3.43 µM.

`CC(C)(CC(=O)O)NC(=O)c1nc(C#N)c2cc(Oc3ccccc3)ccc2c1O` [Compound 82, 3-[(1-Cyano-4-hydroxy-7-phenoxy-isoquinoline-3-carbonyl)-amino]-3-methyl-butyric acid]: the PHD2/PHD1 at PHD1 (EGLN2) (setting [1]) is 23.

On to `N#Cc1nc(C(=O)NCC(=O)O)c(O)c2ccc(Oc3ccccc3)cc12` [U.S. Pat. No. 7,928,120; Example 3, 2-[(1-Cyano-4-hydroxy-7-phenoxy-isoquinoline-3-carbonyl)-amino]-acetic acid, reference compound], for which the PHD2/PHD1 at PHD1 (EGLN2) (setting [2]) was 0.4.

Consider `O=C(O)CNC(=O)c1ncc2cc(Oc3ccccc3)ccc2c1O` [U.S. Pat. No. 7,323,475; Example D-7, 2-[(4-Hydroxy-7-phenoxy-isoquinoline-3-carbonyl)-amino]-acetic acid, reference compound], for which the PHD2/PHD1 on PHD1 (EGLN2) (setting [2]) was 1.5.

As to `N#Cc1nc(C(=O)N[C@@H](CC(=O)O)Cc2ccccc2)c(O)c2ccc(Oc3ccccc3)cc12` [Compound 68, (R)-3-[(1-Cyano-4-hydroxy-7-phenoxy-isoquinoline-3-carbonyl)-amino]-4-phenyl-butyric acid], the IC50 at PHD1 (EGLN2) (Table 1) worked out at 2.27 µM.

(Values after patent US9409892B2, “4-hydroxy-isoquinoline compounds as HIF hydroxylase inhibitors” (FIBROGEN, INC., priority 2012, dated 2016).)
